Reference: patent publication US9233095B2, “Small molecule RNase inhibitors and methods of use” (University of Rochester, priority 2011, dated 2016)
Values after ≈ are worked out from the molar mass of the structure shown. Read-outs that look alike come from different tables or passages of the source.

Experiments:
S. aureus RnpA = target: T1, S. aureus RnpA (Staphylococcus aureus, UniProt P0A0H5); experiment: gel-based RnpA-mediated spa mRNA degradation, inhibitory titration; type: biochemical; conditions: 1 pmol spa mRNA, 20 pmol RnpA, one hour at 37° C.; read-out: IC50 of RnpA-mediated RNA degradation
T1 construct: hexahistidine-tag (N); made in house; host or cells: E. coli BL21 (DE3)
Description: Specifically, members of the ActiProbe-25K and Natural Product libraries (29,940 compounds total; TimTec Inc.; Newark, Del.) were screened for small molecule inhibitors of S. aureus RnpA mediated total bacterial RNA degradation. All reactions (50 μl) were performed in 96-well format and contained 20 pmol RnpA, 200 ng S. aureus total RNA, and about 5 μM of each compound in 1× reaction buffer (2 mM NaCl, 2 mM MgCl2, 50 mM Tris-HCl, pH 6.0). Mixtures were incubated at 37° C. for 20 min at which time Quant-iT RiboGreen® (100 μl; Invitrogen) was added to quantify the amount of RNA substrate remaining. Percent enzyme inhibition was calculated as remaining substrate/starting substrate*100. For inhibitory titration assays, 1 pmol of spa mRNA was incubated with 20 pmol RnpA alone (positive control) or in the presence of increasing amounts (0, 25, 50, 100, 125, 150, 200, 250, and 500 μM) RNP1000 for one hour at 37° C. Following this, 20 μl of each reaction mixture were subjected to electrophoresis in a 1.2% formaldehyde-containing agarose gel and visualized by ethidium bromide staining.

E. coli RNase HI = target: T2, E. coli RNase HI (Escherichia coli, UniProt P0A7Y4); experiment: ribonuclease specificity test; type: biochemical; conditions: any concentration tested (0-750 μM)
T2 construct: purchased
T2 sequence (P0A7Y4 whole entry): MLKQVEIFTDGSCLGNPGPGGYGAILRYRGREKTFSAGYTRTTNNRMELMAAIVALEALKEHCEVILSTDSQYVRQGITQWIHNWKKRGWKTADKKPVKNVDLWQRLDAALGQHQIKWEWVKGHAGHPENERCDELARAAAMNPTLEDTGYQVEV
Source text: (§1) In total, fourteen molecules inhibited the enzyme's RNA turnover activity by ≧50%. A gel-based secondary assay confirmed that five of these molecules were bona-fide inhibitors of RnpA-mediated RNA degradation (FIG. 3B).

E. coli RNase III = E. coli RNase III (Escherichia coli, UniProt P0A7Y0); experiment: ribonuclease specificity test; type: biochemical; conditions: data not shown
Chain of E. coli RNase III (P0A7Y0 whole entry): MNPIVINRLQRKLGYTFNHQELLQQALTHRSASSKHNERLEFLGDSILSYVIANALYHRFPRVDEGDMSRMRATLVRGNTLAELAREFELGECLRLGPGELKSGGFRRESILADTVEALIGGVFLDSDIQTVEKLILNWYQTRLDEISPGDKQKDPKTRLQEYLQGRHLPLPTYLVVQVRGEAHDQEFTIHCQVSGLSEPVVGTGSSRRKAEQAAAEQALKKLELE
Source text: as §1

RNase A = target: T3, RNase A (Bos taurus, UniProt P61823); experiment: ribonuclease specificity test; type: biochemical; conditions: any concentration tested (0-750 μM)
T3 construct: purchased
T3 sequence (P61823 27-150): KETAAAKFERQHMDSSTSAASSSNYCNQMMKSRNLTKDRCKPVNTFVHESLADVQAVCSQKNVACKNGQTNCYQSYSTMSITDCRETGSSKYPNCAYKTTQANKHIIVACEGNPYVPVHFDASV
Source text: as §1

RNase I = target: T4, RNase I (Escherichia coli, UniProt P21338); experiment: ribonuclease specificity test; type: biochemical; conditions: any concentration tested (0-750 μM)
T4 construct: purchased
T4 sequence (P21338 24-268): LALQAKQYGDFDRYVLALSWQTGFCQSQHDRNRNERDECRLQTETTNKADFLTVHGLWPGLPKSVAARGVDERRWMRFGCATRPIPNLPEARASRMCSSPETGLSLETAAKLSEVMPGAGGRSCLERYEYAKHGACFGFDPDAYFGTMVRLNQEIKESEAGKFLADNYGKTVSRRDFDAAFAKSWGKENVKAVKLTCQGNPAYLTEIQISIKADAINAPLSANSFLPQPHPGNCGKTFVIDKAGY
Source text: as §1

S. aureus RNase J1 = target: T5, S. aureus RNase J1 (Staphylococcus aureus, UniProt Q2FZG9); experiment: ribonuclease specificity test; type: biochemical; conditions: any concentration tested (0-750 μM)
T5 construct: hexahistidine-tag (N); made in house; host or cells: E. coli BL21 (DE3)
Source text: as §1

B. cereus = experiment: CLSI broth microdilution MIC; type: cell-based; conditions: Bacillus cereus; B. cereus Isolate 1
Source text: (§2) In some examples, compounds can be further assayed using the Mueller Hinton (MH) broth antibacterial assay as specified by the Clinical and Laboratory Standards Institute MIC broth microdilution protocol (see Methods for Dilution Antimicrobial Susceptibility Tests for Bacteria That Grow Aerobically; Approved Standard, In The Clinical and Laboratory Standards Institute (CLSI, formerly NCCLS), 7th ed., January 2006, 26 (2), M7-A7; see also Performance Standards for Antimicrobial Susceptibility Testing; Eighteenth Informational Supplement, In The Clinical and Laboratory Standards Institute (CLSI, formerly NCCLS), January 2008, 28 (1), M100-S18).
(§3) With the exception of RN4220-derivatives, in vitro activities of RNPA1000 against bacteria were determined by the broth microdilution method according to the Clinical and Laboratory Standards Institute (CLSI) guidelines using cation adjusted Mueller-Hinton broth or MH broth supplemented with 5% lysed horse blood (for testing Streptotococcus spp.). Microtiter plates containing serial dilutions of RNPA1000 (0, 4, 8, 16, 32, 64, and 128 μg/ml) were inoculated with 10^5 colony forming units (CFU)/ml and incubated for 18 hr at 37° C. […] The MIC value for each S. aureus strain was determined to be the median score of replicate measurements (n=5). Wells containing concentrations of RNPA1000≧MIC were plated for minimal bactericidal measurement. Where possible, experiments with VRSA strains were performed in a laminar flow hood to minimize potential for equipment contamination. For RN4220 cells containing plasmid vector (pCN51), RnpA overproducing plasmid (pRNPA-S) or RnpA underproducing plasmid (pRNPA-A.S.) in vitro antimicrobial activity of RNPA1000 was performed by the microdilution method as described above, except that cells were grown in Tryptic Soy Broth medium supplemented with 2.5 μM CdCl2 and 0, 1, 2, 4, 8, 16, 32, 64, or 128 μg/ml RNPA1000. Time-kill assays were also performed to monitor the antimicrobial properties of RNPA1000 for S. aureus strain UAMS-1 in the absence and presence of 0.25, 0.5, 2, and 4 times the strain's MIC for oxacillin (1 μg/ml), rifampicin (0.5 μg/ml), vancomycin (2 μg/ml), or daptomycin (1 μg/ml). The indicated amount of RNPA1000 and/or commercial antibiotic were added to mid-exponential phase (2×10^8 cfu/ml) S. aureus strain UAMS-1 cells and incubated at 37° C. Aliquots were removed at 0, 2, 4, 8, and 24 hr post-antimicrobial challenge, serial diluted, and plated to enumerate resulting cfu/ml. All time-kill assays were repeated at least 3 times.

S. aureus (VISA) = experiment: CLSI broth microdilution MIC; type: cell-based; conditions: Staphylococcus aureus
Source text: as §2, §3

S. aureus (VRSA) = experiment: CLSI broth microdilution MIC; type: cell-based; conditions: Staphylococcus aureus
Source text: as §2, §3

S. bovis = experiment: CLSI broth microdilution MIC; type: cell-based; conditions: Salmonella enterica; S. bovis ATCC49147
Source text: as §2, §3

S. epidermidis = experiment: CLSI broth microdilution MIC; type: cell-based; conditions: Staphylococcus epidermidis
Source text: as §2, §3

S. pneumoniae = experiment: CLSI broth microdilution MIC; type: cell-based; conditions: Streptococcus pneumoniae
Source text: as §2, §3

S. sanguis = experiment: CLSI broth microdilution MIC; type: cell-based; conditions: S. sanguis Isolate 1
Source text: as §2, §3

E. coli = experiment: CLSI broth microdilution MIC; type: cell-based, Escherichia coli
Source text: as §2, §3

SMILES: Cc1cc(/C=C(/C#N)C(=O)Nc2cccc(Br)c2)c(C)n1-c1ccc(C(=O)O)cc1 [RNPA1000]
- IC50 (S. aureus RnpA): 100 to 125 µM
- effect on E. coli RNase HI activity (E. coli RNase HI): did not affect the activity
- IC50 (E. coli RNase III): 500 to 750 µM
- effect on RNase A activity (RNase A): did not affect the activity
- effect on RNase I activity (RNase I): did not affect the activity
- effect on S. aureus RNase J1 activity (S. aureus RNase J1): did not affect the activity
- MIC (B. cereus): 8 µg/mL (≈ 17.2 µM)
- MIC (S. aureus (VISA); NRS 1 / VISA, strain VISA-NRS1): 32 µg/mL (≈ 68.9 µM)
- MIC (S. aureus (VISA); NRS 3 / VISA, strain VISA-NRS3): 16 µg/mL (≈ 34.5 µM)
- MIC (S. aureus (VISA); VISA Isolate 3): 16 µg/mL (≈ 34.5 µM)
- MIC (S. aureus (VISA); VISA Isolate 4): 32 µg/mL (≈ 68.9 µM)
- MIC (S. aureus (VISA); VISA Isolate 5): 16 µg/mL (≈ 34.5 µM)
- MIC (S. aureus (VRSA); strain VRSA-VRS1): 16 µg/mL (≈ 34.5 µM)
- MIC (S. aureus (VRSA); strain VRSA-VRS10): 32 µg/mL (≈ 68.9 µM)
- MIC (S. bovis): 32 µg/mL (≈ 68.9 µM)
- MIC (S. epidermidis; S. epidermidis Isolate 1): 16 µg/mL (≈ 34.5 µM)
- MIC (S. epidermidis; S. epidermidis Isolate 2): 8 µg/mL (≈ 17.2 µM)
- MIC (S. epidermidis; S. epidermidis Isolate 3): 8 µg/mL (≈ 17.2 µM)
- MIC (S. epidermidis; S. epidermidis Isolate 4): 8 µg/mL (≈ 17.2 µM)
- MIC (S. epidermidis; S. epidermidis Isolate 5): 8 µg/mL (≈ 17.2 µM)
- MIC (S. pneumoniae; S. pneumoniae Isolate 1): 16 µg/mL (≈ 34.5 µM)
- MIC (S. pneumoniae; S. pneumoniae Isolate 2): 16 µg/mL (≈ 34.5 µM)
- MIC (S. pneumoniae; S. pneumoniae Isolate 3): 16 µg/mL (≈ 34.5 µM)
- MIC (S. pneumoniae; S. pneumoniae Isolate 4): 32 µg/mL (≈ 68.9 µM)
- MIC (S. pneumoniae; S. pneumoniae Isolate 5): 16 µg/mL (≈ 34.5 µM)
- MIC (S. sanguis): 16 µg/mL (≈ 34.5 µM)
- effect on growth (E. coli): did not affect
- MIC (E. coli; E. coli Isolate 2): >64 µg/mL
- MIC (E. coli; E. coli Isolate 3): >64 µg/mL
- MIC (E. coli; E. coli Isolate 4): >64 µg/mL
- MIC (E. coli; E. coli Isolate 5): >64 µg/mL
- MIC (E. coli; Escherichia coli, E. coli Isolate 1, read-out: MIC): > 64 µg/mL
